Reference: the NIST ThermoML archive (doi:10.1021/acs.jced.8b00358)

Legend:
[1] = 83 kPa, Liquid; for speed of sound: Frequency=3 MHz, Single path-length method; for mass density: Vibrating tube method
[2] = molar heat capacity at constant pressure; conditions: 83 kPa, Liquid, DSC

CCCCCCC(=O)OCC(COC(=O)CCCCCC)(COC(=O)CCCCCC)COC(=O)CCCCCC [pentaerythritol tetraheptanoate]
Conditions	mass density [kg/m3]	molar heat capacity at constant pressure [J/K/mol]	speed of sound [m/s]
[1], 278.15 K	989.09	–	1435
[1], 283.15 K	985.27	–	1417.7
[1], 288.15 K	981.48	–	1400.7
[1], 293.15 K	977.69	–	1383.8
[1], 298.15 K	973.91	–	1367
[1], 303.15 K	970.14	–	1350.3
[1], 308.15 K	966.38	–	1333.9
[1], 313.15 K	962.62	–	1317.8
[1], 318.15 K	958.87	–	1301.9
[1], 323.15 K	955.13	–	1286.1
[1], 328.15 K	951.39	–	1270.4
[1], 333.15 K	947.66	–	1254.9
[1], 338.15 K	943.92	–	1239.6
[1], 343.15 K	940.2	–	1224.5
[2], 293.14 K	–	1059.1	–
[2], 294.14 K	–	1060.3	–
[2], 295.14 K	–	1062	–
[2], 296.14 K	–	1063.8	–
[2], 297.14 K	–	1065.6	–
[2], 298.14 K	–	1066.7	–
[2], 299.14 K	–	1068.5	–
[2], 300.14 K	–	1070.2	–
[2], 301.14 K	–	1071.4	–
[2], 302.14 K	–	1073.2	–
[2], 303.14 K	–	1074.9	–
[2], 304.14 K	–	1076.1	–
[2], 305.14 K	–	1077.8	–
[2], 306.14 K	–	1079	–
[2], 307.14 K	–	1080.8	–
[2], 308.14 K	–	1082.5	–
[2], 309.14 K	–	1083.7	–
[2], 310.14 K	–	1085.4	–
[2], 311.14 K	–	1086.6	–
[2], 312.14 K	–	1088.4	–
[2], 313.14 K	–	1090.1	–
[2], 314.14 K	–	1091.9	–
[2], 315.14 K	–	1093	–
[2], 316.14 K	–	1094.8	–
[2], 317.14 K	–	1096.5	–
[2], 318.14 K	–	1098.3	–
[2], 319.14 K	–	1099.5	–
[2], 320.14 K	–	1101.2	–
[2], 321.14 K	–	1103	–
[2], 322.13 K	–	1104.1	–
[2], 323.14 K	–	1105.9	–
[2], 324.14 K	–	1107.7	–
[2], 325.14 K	–	1108.8	–
[2], 326.14 K	–	1110.6	–
[2], 327.14 K	–	1112.3	–
[2], 328.14 K	–	1114.1	–
[2], 329.14 K	–	1115.8	–
[2], 330.14 K	–	1117	–
[2], 331.14 K	–	1118.8	–
[2], 332.14 K	–	1120.5	–
[2], 333.14 K	–	1121.7	–
[2], 334.13 K	–	1123.4	–
[2], 335.14 K	–	1125.2	–
[2], 336.14 K	–	1127	–
[2], 337.14 K	–	1128.1	–
[2], 338.14 K	–	1129.9	–
[2], 339.14 K	–	1131.6	–
[2], 340.14 K	–	1133.4	–
[2], 341.13 K	–	1134.6	–
[2], 342.14 K	–	1136.3	–
[2], 343.14 K	–	1138.1	–
[2], 344.14 K	–	1139.8	–
[2], 345.13 K	–	1141.6	–
[2], 346.14 K	–	1143.3	–
[2], 347.14 K	–	1145.1	–
[2], 348.14 K	–	1146.3	–
[2], 349.14 K	–	1148	–
[2], 350.14 K	–	1149.8	–
[2], 351.14 K	–	1151.5	–
[2], 352.14 K	–	1153.3	–
[2], 353.14 K	–	1154.4	–
[2], 354.14 K	–	1156.2	–
[2], 355.14 K	–	1158	–
[2], 356.14 K	–	1159.7	–
[2], 357.14 K	–	1160.9	–
[2], 358.14 K	–	1162.6	–
[2], 359.14 K	–	1164.4	–
[2], 360.14 K	–	1166.1	–
[2], 361.14 K	–	1167.9	–
[2], 362.14 K	–	1169.1	–
[2], 363.14 K	–	1170.8	–
[2], 364.14 K	–	1172.6	–
[2], 365.14 K	–	1174.3	–
[2], 366.14 K	–	1176.1	–
[2], 367.14 K	–	1177.3	–
[2], 368.14 K	–	1179	–
[2], 369.14 K	–	1180.8	–
[2], 370.14 K	–	1182.5	–
[2], 371.14 K	–	1184.3	–
[2], 372.14 K	–	1185.4	–
[2], 373.14 K	–	1187.2	–
[2], 374.14 K	–	1188.9	–
[2], 375.14 K	–	1190.7	–
[2], 376.14 K	–	1192.5	–
[2], 378.14 K	–	1196	–
[2], 379.14 K	–	1197.7	–
[2], 380.14 K	–	1198.9	–
[2], 381.14 K	–	1200.6	–
[2], 382.14 K	–	1202.4	–
[2], 383.14 K	–	1204.2	–
[2], 384.14 K	–	1205.9	–
[2], 385.14 K	–	1207.7	–
[2], 386.14 K	–	1209.4	–
[2], 387.14 K	–	1211.2	–
[2], 388.14 K	–	1212.9	–
[2], 389.14 K	–	1214.1	–
[2], 390.14 K	–	1215.9	–
[2], 391.14 K	–	1217.6	–
[2], 392.14 K	–	1219.4	–
[2], 393.14 K	–	1220.5	–
[2], 394.14 K	–	1222.3	–
[2], 395.14 K	–	1224	–
[2], 396.14 K	–	1225.2	–
[2], 397.14 K	–	1227	–
[2], 398.14 K	–	1228.7	–
[2], 399.14 K	–	1230.5	–
[2], 400.14 K	–	1232.2	–
[2], 401.14 K	–	1234	–
[2], 402.14 K	–	1235.7	–
[2], 403.14 K	–	1236.9	–
[2], 404.14 K	–	1238.7	–
[2], 405.14 K	–	1240.4	–
[2], 406.14 K	–	1242.2	–
[2], 407.14 K	–	1243.9	–
[2], 408.14 K	–	1245.7	–
[2], 409.14 K	–	1247.4	–
[2], 410.14 K	–	1248.6	–
[2], 411.14 K	–	1250.4	–
[2], 412.13 K	–	1252.1	–
[2], 413.14 K	–	1253.9	–
[2], 414.13 K	–	1255.6	–
[2], 415.14 K	–	1257.4	–
[2], 416.14 K	–	1258.5	–
[2], 417.14 K	–	1260.3	–
